T1: human ALK5 (kinase domain, ALK5 T204D) (Homo sapiens, UniProt P36897, T204D)
T1 construct: The kinase domain of human ALK5 (amino acids 200-503); made in house; host or cells: insect cells (baculovirus)
T1 sequence (P36897 200-503 T204D): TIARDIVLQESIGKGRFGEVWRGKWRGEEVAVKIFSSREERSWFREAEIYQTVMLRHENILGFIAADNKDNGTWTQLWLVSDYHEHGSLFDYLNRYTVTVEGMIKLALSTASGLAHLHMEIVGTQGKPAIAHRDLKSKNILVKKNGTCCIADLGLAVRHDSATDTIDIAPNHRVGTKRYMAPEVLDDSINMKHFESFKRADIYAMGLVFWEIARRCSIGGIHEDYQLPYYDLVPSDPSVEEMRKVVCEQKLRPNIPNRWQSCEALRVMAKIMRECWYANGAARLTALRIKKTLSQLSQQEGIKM

B1: follistatin: "follistatin, an antagonist of activin signalling" (protein, UniProt P19883 30-344, looked up)
Follistatin: GNCWLRQAKNGRCQVLYKTELSKEECCSTGRLSTSWTEEDVNDNTLFKWMIFNGGAPNCIPCKETCENVDCGPGKKCRMNKKNKPRCVCAPDCSNITWKGPVCGLDGKTYRNECALLKARCKEQPELEVQYQGRCKKTCRDVFCPGSSTCVVDQTNNAYCVTCNRICPEPASSEQYLCGNDGVTYSSACHLRKATCLLGRSIGLAYEGKCIKAKSCEDIQCTGGKKCLWDFKVGRGRCSLCDELCPDSKSDEPVCASDNATYASECAMKEAACSSGVLLEVKHSGSCNSISEDTEEEEEDEDQDYSFPISSILEW

The first data set deals with bleomycin-induced pulmonary fibrosis.
Assay: not given
As to conditions: bleomycin-treated rats; cited from earlier work.
As to B1, the lung fibrosis result was “attenuated lung fibrosis”; the “number of macrophages and neutrophils in bronchoalveolar lavage” value is “significantly reduced”.

The next data set addresses T1, human ALK5 (kinase domain, ALK5 T204D). In words: ALK5 kinase assay ([33P] phosphate incorporation into casein). The class given is biochemical. The settings on record: casein substrate, 1 μM unlabelled ATP. An outline of the steps:
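His-tagged human ALK5 T204D kinase domain (aa 200-503, constitutively active, baculovirus/insect-cell expressed), 50 ng/well, preincubated 10 min with compound and dephosphorylated casein (200 μg/well) in Tris pH 7.4/MgCl2/MnCl2. Reaction started with 1 μM ATP plus [33P]ATP, 50 min at room temperature, EDTA-stopped; casein-bound 33P counted by scintillation after filter capture.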
Consider `Cc1cccc(-c2nc(-c3cncc(-c4cccc(CN5CCOCC5)c4)c3)c3cc[nH]c3n2)n1` [Example 67, 2-(6-Methyl-pyridin-2-yl)-4-[5-(3-morpholin-4-ylmethyl-phenyl)-pyridin-3-yl]-7H-pyrrolo[2,3-d]pyrimidine], for which the IC50 (in general, the concentration that gives 50% inhibition) was 24 nM. On to `Cc1cccc(-c2cc(-c3cncc(-c4ccc(C(C)N)cc4)c3)c3cc[nH]c3n2)n1` (stereo not drawn) [Example 112, 1-(4-{5-[6-(6-Methyl-pyridin-2-yl)-1H-pyrrolo[2,3-b]pyridin-4-yl]-pyridin-3-yl}-phenyl)-ethylamine], for which the IC50 stood at 7 nM.

For the molecule `CNCc1cccc(-c2cncc(-c3cc(-c4cccc(C)n4)nc4[nH]ccc34)c2)c1` [Example 68, Methyl-(3-{5-[6-(6-methyl-pyridin-2-yl)-1H-pyrrolo[2,3-b]pyridin-4-yl]-pyridin-3-yl}-benzyl)-amine], the half-maximal inhibitory concentration (IC50) is less than 32 nM. Still for that read-out and setting: then `COc1cncc(-c2nc(-c3cccc(C)n3)nc3[nH]ccc23)c1` [Example 3, 4-(5-Methoxy-pyridin-3-yl)-2-(6-methyl-pyridin-2-yl)-7H-pyrrolo[2,3-d]pyrimidine], with 130 nM; and `Cc1cccc(-c2cc(-c3cncc(C4=CCNCC4)c3)c3cc[nH]c3n2)n1` [Example 111, 5-[6-(6-Methyl-pyridin-2-yl)-1H-pyrrolo[2,3-b]pyridin-4-yl]-1′,2′,3′,6′-tetrahydro-[3,4′]bipyridinyl], with 42 nM.

In turn, `COC(=O)CN(C)Cc1ccc(-c2cncc(-c3cc(-c4cccc(C)n4)nc4[nH]ccc34)c2)cc1` [Example 152, [Methyl-(4-{5-[6-(6-methyl-pyridin-2-yl)-1H-pyrrolo[2,3-b]pyridin-4-yl]-pyridin-3-yl}-benzyl)-amino]-acetic acid methyl ester] showed an IC50 of 10 nM. On the same count and under the same terms, then `Cc1cccc(-c2cc(-c3cncc(-c4cccc(C5CCCN5)c4)c3)c3cc[nH]c3n2)n1` (stereo not drawn) [Example 120, 6-(6-Methyl-pyridin-2-yl)-4-[5-(3-pyrrolidin-2-yl-phenyl)-pyridin-3-yl]-1H-pyrrolo[2,3-b]pyridine], with 3.6 nM; and `Cc1cccc(-c2cc(-c3cncc(-c4ccc(CN(C)CC(=O)O)cc4)c3)c3cc[nH]c3n2)n1` [Example 154, [Methyl-(4-{5-[6-(6-methyl-pyridin-2-yl)-1H-pyrrolo[2,3-b]pyridin-4-yl]-pyridin-3-yl}-benzyl)-amino]-acetic acid acid], with 6.4 nM.

Regarding `Cc1cccc(-c2cc(-c3cncc(-c4ccc(C(C)(C)NCCO)cc4)c3)c3cc[nH]c3n2)n1` [Example 162, 2-[1-Methyl-1-(4-{5-[6-(6-methyl-pyridin-2-yl)-1H-pyrrolo[2,3-b]pyridin-4-yl]-pyridin-3-yl}-phenyl)-ethylamino]-ethanol], the 50% inhibitory concentration (IC50) is 7 nM. In turn, `Cc1cccc(-c2nc(-c3cncc(-c4ccccc4)c3)c3cc[nH]c3n2)n1` [Example 4, 2-(6-Methyl-pyridin-2-yl)-4-(5-phenyl-pyridin-3-yl)-7H-pyrrolo[2,3-d]pyrimidine] came in with an IC50 of 34 nM.

Molecule `Cc1cccc(-c2nc(-c3cncc(C4=CCCC4)c3)c3cc[nH]c3n2)n1` [Example 74, 4-(5-Cyclopent-1-enyl-pyridin-3-yl)-2-(6-methyl-pyridin-2-yl)-7H-pyrrolo[2,3-d]pyrimidine] returned an IC50 of 163 nM. On the same count and under the same terms, then `Cc1cccc(-c2cc(-c3cncc(C#CCN4CCC(F)(F)C4)c3)c3cc[nH]c3n2)n1` [Example 155, 4-{5-[3-(3,3-Difluoro-pyrrolidin-1-yl)-prop-1-ynyl]-pyridin-3-yl}-6-(6-methyl-pyridin-2-yl)-1H-pyrrolo[2,3-b]pyridine], with 48 nM; and `Cc1cccc(-c2nc(-c3cncc(-c4ccc(CO)cc4)c3)c3cc[nH]c3n2)n1` [Example 70], with 13 nM. Same read-out and setting: the value for `Cc1cccc(-c2nc(-c3cncc(-c4cccc(C5CCCN5)c4)c3)c3cc[nH]c3n2)n1` (stereo not drawn) [Example 102, 2-(6-Methyl-pyridin-2-yl)-4-[5-(3-pyrrolidin-2-yl-phenyl)-pyridin-3-yl]-7H-pyrrolo[2,3-d]pyrimidine] was 31 nM; that for `CNCc1ccc(-c2cncc(-c3cc(-c4cccc(C)n4)nc4[nH]ccc34)c2)cc1` [Example 73, Methyl-(4-{5-[6-(6-methyl-pyridin-2-yl)-1H-pyrrolo[2,3-b]pyridin-4-yl]-pyridin-3-yl}-benzyl)-amine] was 17 nM; that for `Cc1cccc(-c2cc(-c3cncc(-c4cccc(CN5CCOCC5)c4)c3)c3cc[nH]c3n2)n1` [Example 90, 6-(6-Methyl-pyridin-2-yl)-4-[5-(3-morpholin-4-ylmethyl-phenyl)-pyridin-3-yl]-1H-pyrrolo[2,3-b]pyridine] was 66 nM. The same measure, in the same setting: the value for `CNCc1ccc(-c2cncc(-c3nc(-c4cccc(C)n4)nc4[nH]ccc34)c2)cc1` [Example 39, Methyl-(4-{5-[2-(6-methyl-pyridin-2-yl)-7H-pyrrolo[2,3-d]pyrimidin-4-yl]-pyridin-3-yl}-benzyl)-amine] was 6 nM; that for `Cc1cccc(-c2cc(-c3cncc(-c4ccc([C@H](C)N)cc4)c3)c3cc[nH]c3n2)n1` [Example 127, (S)-1-(4-{5-[6-(6-Methyl-pyridin-2-yl)-1H-pyrrolo[2,3-b]pyridin-4-yl]-pyridin-3-yl}-phenyl)-ethylamine] was 17 nM; that for `Cc1cccc(-c2nc(-c3cncc(-c4ccc(C5CNCCN5)cc4)c3)c3cc[nH]c3n2)n1` (stereo not drawn) [Example 87, 2-(6-Methyl-pyridin-2-yl)-4-[5-(4-piperazin-2-yl-phenyl)-pyridin-3-yl]-7H-pyrrolo[2,3-d]pyrimidine] was 10 nM. Consider `COc1ccccc1-c1cncc(-c2nc(-c3cccc(C)n3)nc3[nH]ccc23)c1` [Example 8, 4-[5-(2-Methoxy-phenyl)-pyridin-3-yl]-2-(6-methyl-pyridin-2-yl)-7H-pyrrolo[2,3-d]pyrimidine], for which the half-inhibitory concentration (IC50) was determined as 478 nM. Still for that read-out and setting: the value for `Cc1cccc(-c2cc(-c3cncc(-c4cccc(CN(C)CCO)c4)c3)c3cc[nH]c3n2)n1` [Example 142, 2-[Methyl-(3-{5-[6-(6-methyl-pyridin-2-yl)-1H-pyrrolo[2,3-b]pyridin-4-yl]-pyridin-3-yl}-benzyl)-amino]-ethanol] was 10 nM. `Cc1cccc(-c2nc(-c3cncc4ccccc34)c3cc[nH]c3n2)n1` [Example 29, 4-[2-(6-Methyl-pyridin-2-yl)-7H-pyrrolo[2,3-d]pyrimidin-4-yl]-isoquinoline] showed an IC50 of 11 nM.

A further data set concerns dimethylnitrosamine induced liver fibrosis.
Assay: not given
As to conditions: given therapeutically to rat, 3 weeks treatment; cited from earlier work.
For `c1ccc(-c2cc(-c3cn[nH]c3-c3ccccn3)ccn2)cc1` [GW6604], the “inhibition of extracellular matrix deposition” value is 60% and the “prevention of death rate” value is on record as 40%.

Staying with this data set, now noted: rat, in vivo; cited from earlier work.
Regarding `c1ccc(-c2cc(-c3cn[nH]c3-c3ccccn3)ccn2)cc1` [GW6604], the side effects result is reported as “no obvious side effects”.
